From patent publication US20110071180A1, “SUB-TYPE SELECTIVE AMIDES OF DIAZABICYCLOALKANES” (Targacept, Inc., priority 2008, published 2011) come the findings set out here.

For assay [1], the target named is T1, rat α4β2 nAChR subtype (Rattus norvegicus, UniProt P09483+P12390).
T1 construct: The cerebral cortex was removed and placed in 20 volumes (weight:volume) of ice-cold preparative buffer; from tissue; host or cells: rat cerebral cortex membranes (female Sprague-Dawley)
In words: Radioligand binding, [3H]nicotine, rat cortex membranes. To be noted: 5 μM compound, 5 nM 3H-nicotine; Ki not determined.

The target of another assay is T2, α7 nAChR subtype (Rattus norvegicus, UniProt Q05941).
T2 construct: The hippocampus was removed and placed in 10 volumes (weight:volume) of ice-cold preparative buffer; from tissue; host or cells: rat hippocampus membranes (female Sprague-Dawley)
T2 sequence (Q05941 23-502): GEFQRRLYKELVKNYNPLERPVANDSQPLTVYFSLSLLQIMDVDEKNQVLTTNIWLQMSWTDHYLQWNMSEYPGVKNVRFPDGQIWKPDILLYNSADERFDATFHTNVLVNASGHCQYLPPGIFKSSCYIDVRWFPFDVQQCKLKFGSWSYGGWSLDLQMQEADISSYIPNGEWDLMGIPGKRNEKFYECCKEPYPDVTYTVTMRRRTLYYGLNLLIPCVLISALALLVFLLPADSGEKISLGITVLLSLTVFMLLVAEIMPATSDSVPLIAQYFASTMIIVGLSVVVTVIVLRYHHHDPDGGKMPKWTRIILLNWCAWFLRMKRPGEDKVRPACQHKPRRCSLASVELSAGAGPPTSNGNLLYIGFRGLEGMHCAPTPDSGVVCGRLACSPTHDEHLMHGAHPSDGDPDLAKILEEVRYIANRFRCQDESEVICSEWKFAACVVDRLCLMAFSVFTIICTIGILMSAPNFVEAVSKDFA
Description: Radioligand binding, [3H]MLA, rat hippocampus membranes. Particulars: for inhibition at 5 µM: read-out: α7 high through-put screening (HTS) result.

The target in another assay is T3, human α4β2 nAChR subtype (Homo sapiens, UniProt P17787+P43681).
T3 construct: expressed in transfected cells; host or cells: SH-EP1 clonal cells expressing human α4β2
T3 sequence (P43681 29-627 limits assumed): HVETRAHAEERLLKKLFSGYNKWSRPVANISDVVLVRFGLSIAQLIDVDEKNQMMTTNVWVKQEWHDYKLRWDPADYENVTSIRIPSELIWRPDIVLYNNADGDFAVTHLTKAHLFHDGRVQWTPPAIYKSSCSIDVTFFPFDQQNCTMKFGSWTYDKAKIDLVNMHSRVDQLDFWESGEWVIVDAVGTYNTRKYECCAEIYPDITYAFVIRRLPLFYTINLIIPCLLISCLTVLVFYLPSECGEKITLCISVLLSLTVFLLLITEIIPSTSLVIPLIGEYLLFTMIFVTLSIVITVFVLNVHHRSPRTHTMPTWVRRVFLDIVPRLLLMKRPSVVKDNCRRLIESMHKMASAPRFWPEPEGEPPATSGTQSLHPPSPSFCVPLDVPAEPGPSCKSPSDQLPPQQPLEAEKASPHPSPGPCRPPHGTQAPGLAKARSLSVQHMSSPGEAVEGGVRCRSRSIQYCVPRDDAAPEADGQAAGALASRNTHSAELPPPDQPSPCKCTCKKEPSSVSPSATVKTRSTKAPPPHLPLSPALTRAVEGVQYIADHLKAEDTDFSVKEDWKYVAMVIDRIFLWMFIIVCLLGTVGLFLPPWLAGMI
T3 sequence (P17787 26-502): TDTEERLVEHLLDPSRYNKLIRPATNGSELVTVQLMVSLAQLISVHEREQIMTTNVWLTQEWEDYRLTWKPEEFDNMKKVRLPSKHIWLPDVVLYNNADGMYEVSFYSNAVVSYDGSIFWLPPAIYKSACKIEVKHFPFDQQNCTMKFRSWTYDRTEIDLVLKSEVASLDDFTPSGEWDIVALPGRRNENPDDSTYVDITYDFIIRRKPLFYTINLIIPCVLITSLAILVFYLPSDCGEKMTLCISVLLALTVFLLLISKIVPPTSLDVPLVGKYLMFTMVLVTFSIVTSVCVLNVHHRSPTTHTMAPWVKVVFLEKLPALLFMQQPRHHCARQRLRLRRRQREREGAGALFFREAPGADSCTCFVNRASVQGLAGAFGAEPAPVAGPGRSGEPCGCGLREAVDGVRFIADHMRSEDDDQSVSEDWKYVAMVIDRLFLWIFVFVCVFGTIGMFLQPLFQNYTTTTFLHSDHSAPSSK
Description: Radioligand binding, [3H]nicotine, membranes from SH-EP1/human α4β2 clonal cells. Particulars: [3H]nicotine 5 nM, SH-EP1/human α4β2 cell membranes.

The subject of the next assay is rats. Description: Novel object recognition (NOR) task. The class given is in vivo, rat. To be noted: oral, 0.3 mg/kg. As to the method: FIG. 1 is a chart showing the results of a study on object recognition in rats treated orally with N-(propanoyl)-3,7-diazabicyclo[3.3.0]octane. The results are shown as a function of recognition index (%) versus dose (mg/kg). N-(Propanoyl)-3,7-diazabicyclo[3.3.0]octane is active orally in rats at 0.3 mg/kg in novel object recognition (NOR) task.
The novel object recognition (NOR) task was performed in accord with the description of Ennaceur and Delacour Behav. Brain Res. 100: 85-92 (1988).
Certain exemplified compounds were assessed in the NOR task. Thus, N-(propanoyl)-3,7-diazabicyclo[3.3.0]octane (Compound 10-16, Table 1) was active in NOR in rats, at […]. This provides evidence of the efficacy (and potency) of the compounds of the present invention in treating cognitive deficits, attentional disorders and dementias, and the potential of these compounds for human therapy.

Assay [2] has as its target T1, rat α4β2 nAChR subtype. Description: Radioligand binding, [3H]nicotine, rat cortex membranes. Particulars: [3H]nicotine 5 nM.

Usually pKi stands for the negative decadic logarithm of the Ki, by convention in mol/L.

pKi: −log10 of the molar value. Where two headings read alike, the source gives them in different places. Where only a bound is given, the exact number is not on record here.

T1 sequence (P09483 31-630): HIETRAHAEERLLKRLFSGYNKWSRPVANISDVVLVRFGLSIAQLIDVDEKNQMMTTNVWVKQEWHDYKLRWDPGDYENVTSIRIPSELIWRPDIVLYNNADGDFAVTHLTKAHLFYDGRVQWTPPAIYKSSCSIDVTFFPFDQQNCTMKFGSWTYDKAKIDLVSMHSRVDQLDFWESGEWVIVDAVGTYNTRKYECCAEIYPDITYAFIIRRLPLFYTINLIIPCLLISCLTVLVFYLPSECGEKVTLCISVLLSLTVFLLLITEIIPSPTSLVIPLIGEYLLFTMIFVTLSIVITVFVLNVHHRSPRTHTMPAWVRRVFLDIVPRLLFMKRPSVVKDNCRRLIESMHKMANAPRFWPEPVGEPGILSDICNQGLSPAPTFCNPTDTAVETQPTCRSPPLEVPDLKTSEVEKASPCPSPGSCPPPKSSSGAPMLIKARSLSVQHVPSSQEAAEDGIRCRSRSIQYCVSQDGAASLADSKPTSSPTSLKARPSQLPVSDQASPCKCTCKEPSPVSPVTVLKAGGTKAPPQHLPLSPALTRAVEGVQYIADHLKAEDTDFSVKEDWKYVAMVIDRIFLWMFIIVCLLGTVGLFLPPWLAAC
T1 sequence (P12390 25-500): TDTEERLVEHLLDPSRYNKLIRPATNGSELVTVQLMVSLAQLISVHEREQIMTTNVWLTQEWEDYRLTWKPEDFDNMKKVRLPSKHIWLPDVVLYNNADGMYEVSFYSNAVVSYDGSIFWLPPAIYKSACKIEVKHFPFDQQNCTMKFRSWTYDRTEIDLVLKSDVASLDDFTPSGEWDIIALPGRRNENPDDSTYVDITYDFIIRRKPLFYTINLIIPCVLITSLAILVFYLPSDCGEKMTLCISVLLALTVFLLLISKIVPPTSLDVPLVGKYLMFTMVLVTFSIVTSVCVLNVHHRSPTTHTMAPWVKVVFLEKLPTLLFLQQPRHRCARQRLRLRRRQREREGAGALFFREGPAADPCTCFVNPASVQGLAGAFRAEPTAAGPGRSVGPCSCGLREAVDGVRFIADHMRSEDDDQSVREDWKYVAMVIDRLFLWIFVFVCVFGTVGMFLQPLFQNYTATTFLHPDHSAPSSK

As for `O=C(Cc1cccnc1)N1CC2CNCC2C1` (stereo not shown) [Example 10-6], the “Rat α4β2 high through-put screening (HTS) result” value on rat α4β2 nAChR subtype [1] is on record as “ND; failed HTS (the compound failed to inhibit, at 5 μM concentration, the binding of 5 nM ^3H-nicotine by at least 50%)”. At α7 nAChR subtype, the inhibition at 5 µM was less than 50%. The compound further gave a pKi on human α4β2 nAChR subtype of 6.31.

For `CCC(=O)N1CC2CNCC2C1` (stereo not shown) [Example 10-16, N-(propanoyl)-3,7-diazabicyclo[3.3.0]octane], the “activity in novel object recognition (NOR) task (recognition index)” value in the assay on rats is listed as “active”.

With `CC1(C)CC(C(=O)N2CC3CNCC3C2)C1` (stereo not shown) [Example 10-50], the “Rat α4β2 high through-put screening (HTS) result” value on rat α4β2 nAChR subtype [1] is given as “ND; failed HTS (the compound failed to inhibit, at 5 μM concentration, the binding of 5 nM ^3H-nicotine by at least 50%)”. In addition, the inhibition at 5 µM at α7 nAChR subtype was less than 50%. In addition, at human α4β2 nAChR subtype, the pKi was 6.89.

As for `O=C(C(O)c1ccccc1)N1CC2CNCC(C2)C1` (stereo not shown) [Example 10-64], at rat α4β2 nAChR subtype [1], the “Rat α4β2 high through-put screening (HTS) result” value was “ND; failed HTS (the compound failed to inhibit, at 5 μM concentration, the binding of 5 nM ^3H-nicotine by at least 50%)”. Further, the inhibition at 5 µM on α7 nAChR subtype was less than 50%. The negative-log Ki (pKi) at human α4β2 nAChR subtype was 5.82.

For the compound `COC(C(=O)N1CC2CNCC(C2)C1)c1ccccc1` (stereo not shown) [Example 10-65], the “Rat α4β2 high through-put screening (HTS) result” value on rat α4β2 nAChR subtype [1] is “ND; failed HTS (the compound failed to inhibit, at 5 μM concentration, the binding of 5 nM ^3H-nicotine by at least 50%)”. Further, the inhibition at 5 µM on α7 nAChR subtype is less than 50%. In addition, the pKi on human α4β2 nAChR subtype is 6.41.

Turning to `O=C([C@@H]1C[C@H]1F)N1CC2CNCC(C2)C1` [Example 10-88], the pKi on α7 nAChR subtype (α7 Ki) was 6.62; on rat α4β2 nAChR subtype [2] it was 8.74; on human α4β2 nAChR subtype, 8.85.

In the case of `O=C([C@@H]1C[C@@H]1F)N1CC2CNCC(C2)C1` [Example 10-89], the values for the pKi on α7 nAChR subtype (α7 Ki), on rat α4β2 nAChR subtype [2] and at human α4β2 nAChR subtype were 7.13, 9.10 and 9.00, respectively.

For `CC(F)(F)C(=O)N1CC2CNCC(C2)C1` [Example 10-90], the inhibition at 5 µM on α7 nAChR subtype is less than 50%. Further, the figures for the negative logarithm of the Ki (pKi) on rat α4β2 nAChR subtype [2] and at human α4β2 nAChR subtype were 7.84 and 8.04, respectively.

Turning to `CC(C)(F)C(=O)N1CC2CNCC(C2)C1` [Example 10-91], the inhibition at 5 µM on α7 nAChR subtype is less than 50%. Besides, the pKi on rat α4β2 nAChR subtype [2] is 6.47; at human α4β2 nAChR subtype, 6.86.

Consider `O=C([C@H]1C[C@H]1F)N1CC2CNCC(C2)C1` [Example 10-92], for which the pKi at α7 nAChR subtype (α7 Ki) was 6.44; at rat α4β2 nAChR subtype [2], 7.80; at human α4β2 nAChR subtype, 8.14.

As for `O=C(C1CC2CCC1C2)N1CC2CNCC(C2)C1` (stereo not shown) [Example 10-93], the inhibition at 5 µM on α7 nAChR subtype is less than 50%. For the same compound, the pKi on rat α4β2 nAChR subtype [2] was 7.30; at human α4β2 nAChR subtype it was 7.45.

For the compound `O=C(C1CC2C=CC1C2)N1CC2CNCC(C2)C1` (stereo not shown) [Example 10-94], the inhibition at 5 µM on α7 nAChR subtype is less than 50%. Besides, the pKi on rat α4β2 nAChR subtype [2] is 7.64; at human α4β2 nAChR subtype, 7.90.

As for `O=C([C@@H]1CC2C=CC1C2)N1CC2CNCC(C2)C1` (stereo partly shown) [Example 10-95], the inhibition at 5 µM at α7 nAChR subtype was less than 50%. Moreover, the figures for the pKi on rat α4β2 nAChR subtype [2] and at human α4β2 nAChR subtype were 8.31 and 8.66, respectively.

As for `O=C(C1CCC[C@H]1O)N1CC2CNCC(C2)C1` (stereo partly shown) [Example 10-96], the inhibition at 5 µM at α7 nAChR subtype was less than 50%. Also, the pKi is 6.11 on rat α4β2 nAChR subtype [2] and 6.14 on human α4β2 nAChR subtype.

For the compound `O=C(C1C2CCCCC21)N1CC2CNCC(C2)C1` (stereo not shown) [Example 10-97], at rat α4β2 nAChR subtype [1], the “Rat α4β2 high through-put screening (HTS) result” value is given as “ND; failed HTS (the compound failed to inhibit, at 5 μM concentration, the binding of 5 nM ^3H-nicotine by at least 50%)”. At α7 nAChR subtype, the inhibition at 5 µM is less than 50%. At human α4β2 nAChR subtype, this compound gave a pKi of 7.19.

As for `O=C(C1CC=CCC1)N1CC2CNCC(C2)C1` (stereo not shown) [Example 10-98], the pKi on α7 nAChR subtype ([3H]MLA 5 nM, rat hippocampus membranes, read-out: α7 Ki) is 6.10; at rat α4β2 nAChR subtype [2], 6.70; on human α4β2 nAChR subtype, 6.87.

For the compound `O=C(Cn1ccnc1)N1CC2CNCC(C2)C1` [Example 10-99], the inhibition at 5 µM at α7 nAChR subtype is less than 50%. In addition, the pKi at rat α4β2 nAChR subtype [2] was 5.88; at human α4β2 nAChR subtype, 6.09.

On to `O=C(C1C[C@H]2C=C[C@@H]1CC2)N1CC2CNCC(C2)C1` (stereo partly shown) [Example 10-100], for which the inhibition at 5 µM at α7 nAChR subtype was less than 50%. Also, the values for the negative logarithm of the Ki (pKi) at rat α4β2 nAChR subtype [2] and at human α4β2 nAChR subtype were 6.59 and 7.14, respectively.

For `O=C(C1CC=CCC1c1cccnc1)N1CC2CNCC(C2)C1` (stereo not shown) [Example 10-101], at α7 nAChR subtype, the inhibition at 5 µM is less than 50%. In addition, the negative-log Ki (pKi) on rat α4β2 nAChR subtype [2] was 6.22; on human α4β2 nAChR subtype, 7.16.
